# Source: US7846971B2, “N-halogenated amino acids, N,N-dihalogenated amino acids and derivatives; compositions and methods of using them” (Novabay Pharmaceuticals, Inc., priority 2005, dated 2010)
# Read-outs that look alike come from different tables or passages of the source.
# What was measured:
# [1] = tested on: Primary Human Skin Fibroblasts; assay: XTT cytotoxicity assay on primary human skin fibroblasts; type: cell-based
# Experimental: Cytotoxicity was assessed by a colorimetric assay system, initially described by Scudiero et al., using 3′-(phenylamino-carbonyl)-3,4-tetrazolium-bis (4-methoxy-6-nitro) benzene sulfonic acid hydrate (XTT), ProCheck™ cell viability assay (Evaluation of a soluble tetrazolium/formazan assay for cell growth and drug sensitivity in culture using human and other tumor cell lines described by Scudiero D A, Shoemaker R A H, Paul K D, Monks A, Tierney S, Nofziger T H, Currens M J, Seniff D, Boyd M R. Cancer Res. 1988 Septmeber 1;48(17):4827-33). […] Three cell types were used: mouse lung epithelial cells (L929), primary human skin fibroblast and primary human keratinocyte cells cultured in Dulbecco Modified Eagle's Medium and Keratinocyte defined medium with corresponding growth factors plus antibiotics. Cells were trypsinized and counted under the microscope and seeded at 1000-to-2000 cells per well of a flat-bottom 96-well plate. Cells were allowed to grow over-night at 37° C. Next day, tissue culture media was removed and cells were rinsed with fresh media 1× and then left in 50 μL of tissue culture media. Test articles were prepared as 2-fold dilutions and 200 μL was added into each set of 4-wells (total volume per well=250 μL). Cells were exposed to test articles for 60 min at room temperature. Immediately after the exposed time, test article from each well was removed and cells were fed with 250 μL of fresh media. Plates were incubated at 37° C. for 18-20 hours. The following day media was removed again and replaced with 100 μL/well of fresh media containing 10/100 μL XTT-reagent. Cells were incubated under growth conditions (5% CO2 at 37° C. humidified incubator), protected from light, until color development was achieved. Absorbance was read at 450 nm with reference wavelength at 750 nm using Molecular Device ThermoMax Plate reader, blanking the plate on the medium-only assay blank wells. Untreated cells receiving XTT reagents-only served as positive cell proliferation control.
# [2] = tested on: Escherichia coli (ATCC 11229); assay: Bactericidal activity (colony count, MBC); type: cell-based
# Experimental: To determine the bactericidal activity, we used Escherichia coli (ATCC 11229). The bacterial culture was diluted in sterile saline to prepare inocula. Various test articles were transferred to individual tubes already containing 1.0×10^5 to 2.0×10^5 Colony Forming Units (CFU)/mL bacteria and mixed by gentle vortexing and then incubated at 37° C. for 1 or 24 hours. In an attempt to mimic as far as possible the conditions, which could be produced in vivo if the test articles were used as antiseptics, bacterial plating in a Petri dish was performed immediately after the designated exposure time without the addition of a neutralizer, and independently with addition of neutralizer (as control). Thus, 0.1 mL was removed after 1 or 24 hours exposure times and plated. Plates were incubated at 37° C., and the numbers of bacteria were counted by direct colony count to numerate the surviving bacteria as CFU/mL. Positive growth controls were made with sterile 0.9% saline. All test articles were tested three times.
# [3] = tested on: human adenovirus type 5 (Ad5, McEwen strain); assay: Antiviral plaque assay on A549 cell monolayer; type: cell-based; conditions: virus mixed with sample 1 hr at 37C; for Effect on monolayer (plaques counted), 10^−0 undiluted: dilution 10^−0; for Effect on monolayer (plaques counted), 10^−1: dilution 10^−1; for Effect on monolayer (plaques counted), 10^−2: dilution 10^−2; for Effect on monolayer (plaques counted), 10^−3: dilution 10^−3; for Effect on monolayer (plaques counted), 10^−4: dilution 10^−4; for Effect on monolayer (plaques counted), 10^−5: dilution 10^−5; for Effect on monolayer (plaques counted), 10^−6: dilution 10^−6
# Experimental: An equal volume of human adenovirus type 5 (Ad5, McEwen strain) was mixed with each of the three samples listed below. The mixtures were incubated at 37C for 1 hr and then diluted in tissue culture medium (Dulbecco's Modified Eagle Medium [DMEM] containing heat inactivated 2% fetal bovine serum). The mixtures were then diluted in 10-fold serial dilutions using the same diluent mentioned above. 0.1 ml of each diluted mixture was inoculated on to a A549 cell monolayer grown in 12 well plates (cell source, ATTC) and allowed to adsorb for 1 hr. The inoculum was removed and the monolayer rinsed with diluent and agarose/DMEM overlay applied. The plates were incubated at 37° C. in 5% CO2 atmosphere for 6 days. The monolayers were then fixed, stained and the plaques counted.
# [4] = XTT cytotoxicity assay on L929 cells; type: cell-based; conditions: mouse
# Experimental: Cytotoxicity was assessed by a colorimetric assay system, initially described by Scudiero et al., using 3′-(phenylamino-carbonyl)-3,4-tetrazolium-bis (4-methoxy-6-nitro) benzene sulfonic acid hydrate (XTT), ProCheck™ cell viability assay (Evaluation of a soluble tetrazolium/formazan assay for cell growth and drug sensitivity in culture using human and other tumor cell lines described by Scudiero D A, Shoemaker R A H, Paul K D, Monks A, Tierney S, Nofziger T H, Currens M J, Seniff D, Boyd M R. Cancer Res. 1988 Septmeber 1;48(17):4827-33). […] Three cell types were used: mouse lung epithelial cells (L929), primary human skin fibroblast and primary human keratinocyte cells cultured in Dulbecco Modified Eagle's Medium and Keratinocyte defined medium with corresponding growth factors plus antibiotics. Cells were trypsinized and counted under the microscope and seeded at 1000-to-2000 cells per well of a flat-bottom 96-well plate. Cells were allowed to grow over-night at 37° C. Next day, tissue culture media was removed and cells were rinsed with fresh media 1× and then left in 50 μL of tissue culture media. […] Absorbance was read at 450 nm with reference wavelength at 750 nm using Molecular Device ThermoMax Plate reader, blanking the plate on the medium-only assay blank wells. […]
# [5] = pH=1.88, after 100 hours; cited from earlier work
# [6] = type: physicochemical
# Text: N,N-dichlorotaurine can be identified and quantitatively determined by UV spectroscopy.
# [7] = type: physicochemical; remark: listed apart in the source
# Text: NNDCT and NCT are spectrophotometrically distinguishable. NCT has a maximum absorbance at 252 nm. […] The solution was sealed in ampoules.
# [8] = Volatility test, tightly vs loosely capped bottles; type: physicochemical; conditions: 1.47 mM in 0.9% saline
# Experimental: NNDCT is not volatile. A solution of 1.47 mM in 0.9% saline at pH 3.5 was filled in two glass bottles. One bottle was capped tightly and another was capped loosely.
# [9] = UV-vis spectrum and concentration of NNDCT solutions at varying pH; type: physicochemical; conditions: 1.49 mM, pH 3.0 to 5.0
# Experimental: The spectra and the concentrations of the solutions were measured on the UV-vis spectrometer.
# Add 8.8 g NaCl, 2 ml of 1.0 M HCl, and 0.278 g of taurine into a 1000-ml volumetric flask, followed by adding about 800 ml of deionized water into the flask. Shake the flask to dissolve NaCl and taurine powders. Then add […] of 0.15M of the NaOCl solution into the flask. Fill the flask up to the mark with deionized water. Stir the solution with a magnetic stirring bar for 5 minutes. The concentration and the pH of the resulting solution were measured on a UV-vis spectrometer and a freshly calibrated Beckman pH meter. This solution has a concentration of 1.49 mM and a pH value of 3.85. […] The final pH of this solution is 3.0. […] The final pH of this solution is 4.85.
# [10] = Homo sapiens, Skin fibroblast, Table 2, pH 3.5, in vitro cytotoxicity, read-out: IC50
# [11] = Escherichia coli, ATCC11229, Table 2, pH 3.5, read-out: MBC
compound,measurement,setting,value
"OCl [HOCl, hypochlorous acid, reference compound]",IC50,[1]; [10],47 µg/mL
same,MBC,[2]; [11],0.16 µg/mL
same,effective antimicrobial concentration range,"[2]; pH 3.5, 60 min, 37° C.",≥ 0.016 mM
same,effective antimicrobial concentration range,"[2]; pH 3.5, 24 hrs, 37° C.",≥ 0.0016 mM
same,"Effect on monolayer (plaques counted), 10^−0 undiluted",[3],14
same,"Effect on monolayer (plaques counted), 10^−1",[3],9
same,"Effect on monolayer (plaques counted), 10^−2",[3],3
same,"Effect on monolayer (plaques counted), 10^−3",[3],1
same,"Effect on monolayer (plaques counted), 10^−4",[3],4
same,"Effect on monolayer (plaques counted), 10^−5",[3],4
same,"Effect on monolayer (plaques counted), 10^−6",[3],1
"O=S(=O)(O)CCNCl [NCT, N-chlorotaurine]",factor by which less antimicrobial than NNDCT on an equal concentration basis,[2],1000 fold
same,MBC,"[2]; Escherichia coli, ATCC11229, 1 h, pH 9.5, read-out: MBC (Minimum Bactericidal Concentration)",142 µg/mL
"O=S(=O)(O)CCN(Cl)Cl [NNDCT, N,N-dichlorotaurine]","viability at 60 min, 7 mM",[4],> 90%
same,"loss of N,N-dichlorotaurine",[5],less than 5%
same,IC50,[1]; [10],1440 µg/mL
same,killing efficiency of NNDCT at pH 3.5 as compared to NCT at pH 9.5,"[2]; 60 min exposure, 37° C.",1000 fold
same,killing efficiency of NNDCT at pH 3.5 over NNDCT at pH 5.0,"[2]; 60 min exposure, 37° C.",about 300 fold
same,MBC,"[2]; Escherichia coli, ATCC11229, 1 h, pH 3.5, isotonic solution, 60 min, 37° C., read-out: MBC (Minimum Bactericidal Concentration)",0.136 µg/mL
same,MBC,"[2]; Escherichia coli, ATCC11229, 1 h, pH 5.0, isotonic solution, 60 min, 37° C., read-out: MBC (Minimum Bactericidal Concentration)",38 µg/mL
same,MBC,[2]; [11],0.29 µg/mL
same,effectiveness against E. coli compared with HOCl,[2]; pH 3.5,better or as effective
same,solubility in water,[6],very soluble
same,"loss of N,N-dichlorotaurine","[7]; solution in a vial stored in a refrigerator, three months",no more than 13%
same,NNDCT lost,"[7]; solution pH 3.5, sealed ampoules, refrigerator (4° C.), 4 weeks, initial 1.47 mM",5.4%
same,volatility,[8]; pH 3.5,not volatile
same,difference in concentration between tightly and loosely capped bottle,"[8]; pH 3.5, 4 weeks, room temperature",no difference
same,spectrum and concentration of NNDCT solution over pH range,[9],did not change
"CC(C)(CS(=O)(=O)O)N(Cl)Cl [Sample 1, N,N-dichloro-1,1-dimethylethanesulphonic acid]","Effect on monolayer (plaques counted), 10^−0 undiluted",[3],Early toxic
same,"Effect on monolayer (plaques counted), 10^−1",[3],28
same,"Effect on monolayer (plaques counted), 10^−2",[3],17
same,"Effect on monolayer (plaques counted), 10^−3",[3],3
same,"Effect on monolayer (plaques counted), 10^−4",[3],3
same,"Effect on monolayer (plaques counted), 10^−5",[3],3
same,"Effect on monolayer (plaques counted), 10^−6",[3],9
Povidone-Iodine [reference compound],IC50,"[1]; Table 2, pH 4.2, in vitro cytotoxicity",2.5 µg/mL
same,MBC,"[2]; Table 2, pH 4.2",0.38 µg/mL
